Test results from EP0032314A1, “Aroylpyrrole derivatives, processes for their preparation and their use” (BEECHAM GROUP PLC, priority 1980, dated 1981).

Tests used:
[1] = system: phenylquinone induced mouse writhing; test: phenylquinone induced mouse writhing test (analgesic activity); assay type: in vivo; settings: po
Experimental: Analgesic activity was determined using a conventional phenylquinone induced mouse writhing test.

test animals = settings: in vivo
[2] = reported in J. Pharmacol, Exptl. Therap. 1973, 185, 127-138; cited from earlier work

## CC(=O)CCc1cc(C)c(C(=O)c2ccc(Cl)cc2)n1C [Example 1, 4-(1,4-dimethyl-p-chlorobenzoyl-2-pyrryl)butan-2-one]
[1]
  ED50: 6.1 mg/kg

## Cc1ccc(C(=O)c2ccc(CC(=O)O)n2C)cc1 [Tolmetin]
Test animals
  gastric irritancy: causes gastric irritancy
[2]
  anti-inflammatory activity: possess anti-inflammatory activity
